Converted amounts (≈) assume the structure as drawn.
Columns and labels:
PHKG2 = biological target: T1, PHKG2 (Homo sapiens, UniProt P15735); assay: ThermoFisher SelectScreen, PHKG2; format: binding; details: Table 4
T1 construct: purchased ThermoFisher (SelectScreen, outsourced service)
T1 sequence (P15735 1-406): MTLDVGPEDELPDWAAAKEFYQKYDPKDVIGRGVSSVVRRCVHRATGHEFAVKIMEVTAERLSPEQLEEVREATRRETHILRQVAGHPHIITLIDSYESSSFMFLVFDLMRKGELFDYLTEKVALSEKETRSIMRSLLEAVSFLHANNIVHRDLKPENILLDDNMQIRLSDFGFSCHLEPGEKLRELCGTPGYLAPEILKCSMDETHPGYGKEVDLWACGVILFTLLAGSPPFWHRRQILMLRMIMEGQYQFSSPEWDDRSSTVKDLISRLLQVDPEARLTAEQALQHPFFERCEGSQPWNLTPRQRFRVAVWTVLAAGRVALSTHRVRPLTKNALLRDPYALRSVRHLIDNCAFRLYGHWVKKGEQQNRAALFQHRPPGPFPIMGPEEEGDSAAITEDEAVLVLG
Description: (§1) To mitigate violation of the linear initial velocity principle, which is a problem in end-point assays when doing dose-responses, the enzyme concentration was carefully optimized, in a total assay volume of 25 μL. The assay was performed using 10 μM ATP, 0.02% Tween-20, kinase buffer from Cell Signaling (#9802) in white 384-well plates. The kinase reaction was done for 30 or 60 min at 30° C., and detection of leftover ATP was measured according to Promega's protocol. […] Fractional activities were obtained from normalized data. Non-linear regression (GraphPad Prism7) and a modified Morrison equation for tight binding was used to determine apparent Ki values for inhibitors, assuming no particular mode of inhibition. An orthogonal binding assay (LanthaScreen) was outsourced to ThermoFisher Scientific's SelectScreen Services to determine IC50 values.
(§2) One of the earliest compounds to be synthesized with favorable enzymatic activity towards JNK1 and JNK3 was CDD-2346. A KINOMEscan was performed for CDD-2346 to establish whether the selectivity of this chemical scaffold was suitable or required optimization. […] To confirm that the activity against each kinase was a true result and not a false positive, CDD-2346 was evaluated in kinase assays using ThermoFisher SelectScreen platform. The results from these assays are provided herein (Table 4). The important innovative steps described are the optimization of selectivity a) for JNK isoforms; b) for kinases considered “in-pathway”; and c) to avoid kinases considered “out-of-pathway”.

[1] = In vitro metabolism in mouse liver microsomes; details: mouse, microsomes
Description: (§3) The target product profile seeks to deliver JNK inhibitor as a once daily oral administration. To prioritize compounds for further development, in vitro metabolism of several CDD JNK inhibitors were determined to approximate the plasma half-life and the rate of metabolism of the compounds in vivo.

[2] = In vitro metabolism in human liver microsomes; details: human, microsomes
Description: as §3

PIP5K1C = biological target: T2, PIP5K1C (Homo sapiens, UniProt O60331); assay: ThermoFisher SelectScreen, PIP5K1C; format: binding; details: Table 4
T2 construct: purchased ThermoFisher (SelectScreen, outsourced service)
Description: as §1, §2

JNK3 [3] = biological target: T3, JNK3 (Homo sapiens, UniProt P53779); assay: JNK3 kinase (intrinsic ATPase, Kinase-Glo) assay; format: biochemical; details: Table 3a; read-out: Kd JNK3
MEK5 = biological target: T4, MEK5 (Homo sapiens, UniProt Q13163); assay: ThermoFisher SelectScreen, MEK5; format: binding; details: Table 4
T4 construct: purchased ThermoFisher (SelectScreen, outsourced service)
T4 sequence (Q13163 1-448): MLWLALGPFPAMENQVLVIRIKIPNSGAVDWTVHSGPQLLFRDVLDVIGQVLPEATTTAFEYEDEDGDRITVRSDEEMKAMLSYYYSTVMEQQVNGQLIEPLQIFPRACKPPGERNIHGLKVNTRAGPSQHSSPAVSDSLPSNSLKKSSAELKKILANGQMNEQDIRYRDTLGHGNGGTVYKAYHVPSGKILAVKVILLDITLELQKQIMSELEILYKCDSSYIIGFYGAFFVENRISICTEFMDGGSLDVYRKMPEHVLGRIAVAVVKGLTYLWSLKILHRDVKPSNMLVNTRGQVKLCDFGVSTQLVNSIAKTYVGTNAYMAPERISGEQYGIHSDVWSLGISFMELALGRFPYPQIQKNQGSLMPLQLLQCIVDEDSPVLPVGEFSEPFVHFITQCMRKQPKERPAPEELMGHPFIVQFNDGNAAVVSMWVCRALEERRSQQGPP
Description: as §1, §2

CSNK1G1 = biological target: T5, CSNK1G1 (Homo sapiens, UniProt Q9HCP0); assay: ThermoFisher SelectScreen, CSNK1G1; format: binding
T5 construct: purchased ThermoFisher (SelectScreen)
Description: as §1, §2
No activity of CDD-2728 was detected for Atypical, Mutant, or Lipid kinases. To confirm CDD-2728 inhibition results in the KINOMEscan analysis, individual binding assays were performed on the kinases to which CDD-2728 bound using ThermoFisher SelectScreen.

CLK2 = biological target: T6, CLK2 (Homo sapiens, UniProt P49760); assay: ThermoFisher SelectScreen, CLK2; format: binding
T6 construct: purchased ThermoFisher (SelectScreen)

CSNK1D = biological target: T7, CSNK1D (Homo sapiens, UniProt P48730); assay: ThermoFisher SelectScreen, CSNK1D; format: binding
T7 construct: purchased ThermoFisher (SelectScreen)

JNK1 = JNK1 (Homo sapiens, UniProt P45983); assay: JNK1 kinase (intrinsic ATPase, Kinase-Glo) assay; format: biochemical
Outline: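 Full-length construct not stated; kinases hydrolyse ATP without peptide substrate, reaction run 30 or 60 min at 30° C, remaining ATP read by Kinase-Glo luminescence with no-kinase controls. Apparent Ki from normalized fractional activities fitted to modified Morrison tight-binding equation; orthogonal LanthaScreen binding assay gave IC50.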

JNK3 [4] = biological target: T3, JNK3; assay: ThermoFisher SelectScreen, JNK3; format: binding
CSNK1A1 = biological target: T8, CSNK1A1 (Homo sapiens, UniProt P48729); assay: ThermoFisher SelectScreen, CSNK1A1; format: binding; details: Table 4
T8 construct: purchased ThermoFisher (SelectScreen)
Description: as §1, §2

T3 sequence (P53779 whole entry): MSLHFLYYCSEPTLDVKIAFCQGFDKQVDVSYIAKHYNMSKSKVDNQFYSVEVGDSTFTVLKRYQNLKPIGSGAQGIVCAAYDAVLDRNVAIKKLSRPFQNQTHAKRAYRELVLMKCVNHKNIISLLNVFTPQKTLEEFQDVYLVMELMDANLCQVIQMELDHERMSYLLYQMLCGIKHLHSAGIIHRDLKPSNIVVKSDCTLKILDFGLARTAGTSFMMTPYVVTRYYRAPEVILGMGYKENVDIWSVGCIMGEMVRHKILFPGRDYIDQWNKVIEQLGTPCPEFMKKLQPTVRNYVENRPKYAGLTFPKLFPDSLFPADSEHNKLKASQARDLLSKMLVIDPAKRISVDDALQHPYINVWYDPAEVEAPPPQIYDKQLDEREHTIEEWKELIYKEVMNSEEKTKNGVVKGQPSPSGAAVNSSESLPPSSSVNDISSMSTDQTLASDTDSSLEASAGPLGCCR
T5 sequence (Q9HCP0 whole entry): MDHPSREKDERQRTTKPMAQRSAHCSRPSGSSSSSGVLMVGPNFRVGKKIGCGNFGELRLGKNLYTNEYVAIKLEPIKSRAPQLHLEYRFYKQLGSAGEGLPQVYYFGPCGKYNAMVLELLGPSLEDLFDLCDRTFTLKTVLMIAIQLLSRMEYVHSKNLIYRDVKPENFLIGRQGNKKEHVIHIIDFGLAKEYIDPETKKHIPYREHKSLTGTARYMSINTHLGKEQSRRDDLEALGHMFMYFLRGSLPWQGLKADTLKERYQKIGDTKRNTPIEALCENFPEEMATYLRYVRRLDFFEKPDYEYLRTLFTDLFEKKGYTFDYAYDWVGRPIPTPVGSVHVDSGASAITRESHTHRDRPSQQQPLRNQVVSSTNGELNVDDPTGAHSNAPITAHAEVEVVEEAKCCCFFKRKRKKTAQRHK
Chain of JNK1 (P45983 whole entry): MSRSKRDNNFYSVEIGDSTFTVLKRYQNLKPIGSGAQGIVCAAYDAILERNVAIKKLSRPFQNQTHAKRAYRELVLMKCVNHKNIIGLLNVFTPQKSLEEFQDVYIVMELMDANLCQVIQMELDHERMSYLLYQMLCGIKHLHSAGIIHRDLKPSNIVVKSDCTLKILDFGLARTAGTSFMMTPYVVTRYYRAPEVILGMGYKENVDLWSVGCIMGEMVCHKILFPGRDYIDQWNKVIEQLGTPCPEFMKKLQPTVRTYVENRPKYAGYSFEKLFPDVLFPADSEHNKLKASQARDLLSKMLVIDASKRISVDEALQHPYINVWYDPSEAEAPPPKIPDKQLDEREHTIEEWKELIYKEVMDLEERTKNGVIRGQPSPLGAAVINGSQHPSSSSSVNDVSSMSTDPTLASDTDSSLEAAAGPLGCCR
T6 sequence (P49760 whole entry): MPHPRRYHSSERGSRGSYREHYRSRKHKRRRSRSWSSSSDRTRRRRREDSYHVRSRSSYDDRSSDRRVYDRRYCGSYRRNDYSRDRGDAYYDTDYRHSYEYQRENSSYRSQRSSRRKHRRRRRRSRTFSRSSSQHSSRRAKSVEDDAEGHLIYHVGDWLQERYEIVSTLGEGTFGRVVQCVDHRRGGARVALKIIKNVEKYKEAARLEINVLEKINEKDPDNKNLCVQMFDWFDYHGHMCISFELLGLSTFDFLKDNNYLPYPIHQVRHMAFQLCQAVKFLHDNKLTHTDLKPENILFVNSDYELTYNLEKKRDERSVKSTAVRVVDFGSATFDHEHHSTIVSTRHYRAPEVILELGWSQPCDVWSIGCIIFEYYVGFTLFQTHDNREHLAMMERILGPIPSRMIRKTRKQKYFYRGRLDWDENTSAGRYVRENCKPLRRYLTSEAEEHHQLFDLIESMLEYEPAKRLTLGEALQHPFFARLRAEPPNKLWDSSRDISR
T7 sequence (P48730 whole entry): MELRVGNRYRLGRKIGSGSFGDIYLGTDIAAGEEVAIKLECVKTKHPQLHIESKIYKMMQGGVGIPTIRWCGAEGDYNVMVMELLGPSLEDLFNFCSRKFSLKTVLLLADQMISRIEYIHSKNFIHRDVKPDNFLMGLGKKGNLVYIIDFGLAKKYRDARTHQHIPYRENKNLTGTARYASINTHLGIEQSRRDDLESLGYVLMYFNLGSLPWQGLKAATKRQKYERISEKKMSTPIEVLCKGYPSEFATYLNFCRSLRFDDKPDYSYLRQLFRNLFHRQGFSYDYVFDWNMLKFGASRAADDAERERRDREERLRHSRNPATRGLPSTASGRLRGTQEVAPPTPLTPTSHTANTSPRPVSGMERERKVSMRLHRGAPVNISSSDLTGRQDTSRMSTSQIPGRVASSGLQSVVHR
T2 sequence (O60331 whole entry): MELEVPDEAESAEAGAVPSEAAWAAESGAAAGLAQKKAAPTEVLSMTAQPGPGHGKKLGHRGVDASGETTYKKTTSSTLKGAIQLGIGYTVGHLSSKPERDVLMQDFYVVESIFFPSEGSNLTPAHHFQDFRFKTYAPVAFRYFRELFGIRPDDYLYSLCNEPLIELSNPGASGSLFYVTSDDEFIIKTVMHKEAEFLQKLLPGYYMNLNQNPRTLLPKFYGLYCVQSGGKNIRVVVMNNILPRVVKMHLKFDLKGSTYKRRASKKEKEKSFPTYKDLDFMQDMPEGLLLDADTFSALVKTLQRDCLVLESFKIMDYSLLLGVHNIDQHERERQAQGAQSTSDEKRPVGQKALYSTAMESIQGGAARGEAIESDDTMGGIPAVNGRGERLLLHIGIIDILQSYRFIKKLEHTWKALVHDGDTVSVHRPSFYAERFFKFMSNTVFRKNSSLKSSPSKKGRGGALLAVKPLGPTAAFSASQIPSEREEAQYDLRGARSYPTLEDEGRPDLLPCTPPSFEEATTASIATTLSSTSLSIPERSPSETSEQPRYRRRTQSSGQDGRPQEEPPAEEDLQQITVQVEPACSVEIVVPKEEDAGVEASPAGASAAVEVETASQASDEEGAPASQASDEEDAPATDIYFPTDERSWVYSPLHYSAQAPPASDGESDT
T8 sequence (P48729 whole entry): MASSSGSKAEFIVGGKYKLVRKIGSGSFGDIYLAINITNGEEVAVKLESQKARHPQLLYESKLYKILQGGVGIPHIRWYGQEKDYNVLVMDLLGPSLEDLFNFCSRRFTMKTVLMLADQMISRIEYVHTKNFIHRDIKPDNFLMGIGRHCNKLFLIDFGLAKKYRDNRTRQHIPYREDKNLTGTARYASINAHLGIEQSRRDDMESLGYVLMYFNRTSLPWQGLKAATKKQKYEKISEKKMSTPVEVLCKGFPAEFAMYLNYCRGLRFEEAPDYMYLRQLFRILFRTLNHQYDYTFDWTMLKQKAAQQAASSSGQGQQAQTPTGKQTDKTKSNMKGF

Compound	Kd (PHKG2)	half-life [1]	half-life [2]	Kd (PIP5K1C)	Kd (JNK3 [3])	Kd (MEK5)	Kd (CSNK1G1; Table 4)	Kd (CLK2)	solubility (Solubility)	Kd (CSNK1D)	Kd (JNK1)	Kd (JNK3 [4])	Kd (CSNK1A1)	Kd (CSNK1G1; Table 5)
CNCc1ccc(NC(=O)c2ccn3ncc(-c4cnc5[nH]ccc5c4)c3c2)cc1 [CDD-2346, N-(4-((methylamino)methyl)phenyl)-3-(1H-pyrrolo[2,3-b]pyridin-5-yl)pyrazolo[1,5-a]pyridine-5-carboxamide]	0.188 µM	1.15 h	3.14 h	0.811 µM	0.00065 ± 0.00016 µM	0.579 µM	0.133 µM	0.034 µM	167 µM (≈ 66.1 µg/mL)	0.055 µM	0.00023 ± 8e-05 µM	0.00065 µM	0.085 µM	
CN(C)Cc1ccc(NC(=O)c2ccn3ncc(-c4cnc5[nH]ccc5c4)c3c2)cc1 [CDD-2482, N-(4-((dimethylamino)methyl)phenyl)-3-(1H-pyrrolo[2,3-b]pyridin-5-yl)pyrazolo[1,5-a]pyridine-5-carboxamide]	0.11 µM	0.277 h	0.945 h	13.2 µM	0.00045 ± 4e-05 µM	0.547 µM	0.052 µM	0.017 µM	176 µM (≈ 72.2 µg/mL)	0.03 µM	0.00025 ± 4e-05 µM	0.00045 µM	0.0705 µM	
O=C(Nc1ccc(F)cc1)c1ccn2ncc(-c3cnc4[nH]ccc4c3)c2c1 [CDD-2486, N-(4-fluorophenyl)-3-(1H-pyrrolo[2,3-b]pyridin-5-yl)pyrazolo[1,5-a]pyridine-5-carboxamide]	1.95 µM	0.18 h	0.565 h	1.15 µM	0.00086 ± 5e-05 µM	4.04 µM	14.4 µM	0.13 µM	0.3 µM (≈ 0.111 µg/mL)	2.35 µM	0.0017 ± 0.0002 µM	0.00434 µM	41.3 µM	
CN(C)C(=O)c1cc(NC(=O)c2cc3c(-c4cnc5[nH]ccc5c4)cccc3s2)ccc1O [CDD-2728, N-(3-(dimethylcarbamoyl)-4-hydroxyphenyl)-4-(1H-pyrrolo[2,3-b]pyridin-5-yl)benzo[b]thiophene-2-carboxamide]		1.42 h	2.89 h					0.24 µM	19.4 µM (≈ 8.86 µg/mL)	0.821 µM	0.00024 ± 5e-05 µM			4.4 µM

— patent publication US20260294922A1, “Inhibitors of JUN N-Terminal Kinases (JNK1, JNK2, and/or JNK3) and Mitogen-Activated Protein Kinases (MAPK8, MAPK9, and/or MAPK10) and Methods of Using Same” (Baylor College of Medicine, priority 2023, published 2026)
